Results from patent US20260297042A1, “BIARYLAMIDE DERIVATIVES AND THEIR USE AS PKMYT1 INHIBITORS” (CANCER RESEARCH TECHNOLOGY LIMITED, priority 2023, published 2026).

Columns and labels:
Human PKMYT1 = target: T1, Human PKMYT1 (Homo sapiens, UniProt Q99640); assay: PKMYT1 biochemical ADP-Glo enzymatic assay; conditions: ADP-Glo
T1 construct: Human PKMYT1 75-362 was cloned as a TEV cleavable 6xHis fusion; 6xHis (TEV cleavable) (cleaved yes); made in house; host or cells: bacterial cells
T1 sequence (Q99640 75-362): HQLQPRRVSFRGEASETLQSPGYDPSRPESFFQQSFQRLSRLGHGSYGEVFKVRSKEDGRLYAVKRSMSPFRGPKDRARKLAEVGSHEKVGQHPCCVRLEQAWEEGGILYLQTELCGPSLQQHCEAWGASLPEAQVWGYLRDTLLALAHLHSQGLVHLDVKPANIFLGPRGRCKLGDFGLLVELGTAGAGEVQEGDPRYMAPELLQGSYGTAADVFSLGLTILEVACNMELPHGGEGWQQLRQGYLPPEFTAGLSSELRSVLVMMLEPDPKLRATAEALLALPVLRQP
How it was run: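 Compounds were titrated over 10 points (3-fold steps), then 15 nM purified PKMYT1 kinase domain (aa 75-362) and 500 µM ATP were added in pH 7.5 HEPES buffer. After 60 min at 26 °C, remaining ATP was depleted and ADP converted to luminescence for IC50 fitting.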

OVCAR 3 cells = assay: Cancer cell line proliferation assay, ATP-based cell viability (Cell Titre Glow), OVCAR 3 (CCNE1-amplified); conditions: KYSE30 (normal CCNE1) GI50 vs. OVCAR 3 (CCNE1-amplified) GI50
Method: (§1) Cancer cell lines with either normal (KYSE-30) or amplified CCNE1 expression (OVCAR 3 —ovarian cancer) were evaluated for their sensitivity to PKMYT1 inhibitors using Cell Titre Glow assay (Promega G7573) as endpoint to assess cell proliferation. The luminescence signal was read on a PHERAStar FS microplate reader (BMG Labtech). Data analysis was performed using Microsoft Excel® and Gl50 (concentration that achieves 50% cell growth proliferation inhibition) estimates generated with GraphPad Prism v9.

WEE1 = target: T2, WEE1 (Homo sapiens, UniProt P30291); assay: Selectivity versus WEE1 assay (ADP-Glo enzymatic assay); format: biochemical; conditions: for IC50: ADP-Glo; for PKMYT1 vs. WEE1 selectivity: fold difference in selectivity for PKMYT1 over WEE1
T2 construct: purchased Thermo Fisher PR7373A
T2 sequence (P30291 whole entry): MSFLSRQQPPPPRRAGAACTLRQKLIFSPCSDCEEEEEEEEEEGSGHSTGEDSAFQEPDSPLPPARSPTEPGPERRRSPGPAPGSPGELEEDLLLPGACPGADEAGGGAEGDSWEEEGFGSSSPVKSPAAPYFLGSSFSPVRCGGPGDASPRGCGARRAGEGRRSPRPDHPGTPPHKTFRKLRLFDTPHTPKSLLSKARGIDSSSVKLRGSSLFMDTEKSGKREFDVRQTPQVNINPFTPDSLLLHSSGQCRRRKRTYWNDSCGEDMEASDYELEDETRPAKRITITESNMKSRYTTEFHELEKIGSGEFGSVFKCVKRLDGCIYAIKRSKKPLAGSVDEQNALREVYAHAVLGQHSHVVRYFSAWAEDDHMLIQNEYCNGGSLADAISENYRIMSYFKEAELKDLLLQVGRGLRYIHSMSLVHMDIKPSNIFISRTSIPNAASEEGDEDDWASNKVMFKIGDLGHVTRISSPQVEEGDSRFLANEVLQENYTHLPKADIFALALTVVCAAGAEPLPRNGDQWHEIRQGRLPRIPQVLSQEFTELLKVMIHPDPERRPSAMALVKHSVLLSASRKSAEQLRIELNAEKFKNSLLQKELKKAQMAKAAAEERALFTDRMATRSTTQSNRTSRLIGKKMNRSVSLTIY
How it was run: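 Compounds were pre-dispensed, enzyme (15 nM final) was added in pH 7.5 HEPES buffer, and ATP ([…]) then started a 60 min incubation at 26° C. Afterwards ADP-Glo reagents were added in turn and luminescence was measured to derive IC50 values.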

KYSE-30 cells = assay: Cancer cell line proliferation assay, ATP-based cell viability (Cell Titre Glow), KYSE-30 (normal CCNE1); conditions: Homo sapiens, KYSE-30 cells (normal CCNE1), concentration that achieves 50% cell growth proliferation inhibition, read-out: KYSE30 Gl50
Method: as §1

[1] = 15 nM PKMYT1 kinase domain, 500 µM ATP, 60 minutes at 26° C., banded
[2] = 15 nM WEE1, 60 minutes at 26° C., banded
[3] = banded, ">N" = at least in this band but could be higher
[4] = PKMYT1 kinase domain 15 nM, banded values

| Structure (SMILES) | IC50 (Human PKMYT1; [1]) | Selectivity ratio KYSE30 Gl50 vs. OVCAR3 Gl50 (OVCAR 3 cells) | IC50 (WEE1; [2]) | PKMYT1 vs. WEE1 selectivity (WEE1; [3]) | GI50 (KYSE-30 cells) | IC50 (Human PKMYT1; [4]) | IC50 (WEE1; WEE1 15 nM, banded values) | PKMYT1 vs. WEE1 selectivity (WEE1; banded) |
| --- | --- | --- | --- | --- | --- | --- | --- | --- |
| Cc1cn(-c2ccc(Cl)cn2)nc1Nc1ncc(C(=O)Nc2c(C)ccc(O)c2C)s1 [BAA-376, 2-((1-(5-Chloropyridin-2-yl)-4-methyl-1H-pyrazol-3-yl)amino)-N-(3-hydroxy-2,6-dimethylphenyl)thiazole-5-carboxamide] | 50 to 1000 nM | Y (>20 fold) | > 11 µM | X (100-<1000 fold) | 0.5 to 5 µM | – | – | – |
| CCn1cc(C)c(Nc2ncc(C(=O)Nc3c(C)ccc(O)c3C)s2)n1 [BAA-477, 2-((1-ethyl-4-methyl-1H-pyrazol-3-yl)amino)-N-(3-hydroxy-2,6-dimethylphenyl)thiazole-5-carboxamide] | – | Y (>20 fold) | – | – | > 5 µM | < 50 nM | 1 to 11 µM | X (100-<1000 fold) |
| CCCN(C)C(=O)Cn1cc(C)c(Nc2ncc(C(=O)Nc3c(C)ccc(O)c3C)s2)n1 [BAA-491, N-(3-hydroxy-2,6-dimethylphenyl)-2-((4-methyl-1-(2-(methyl(propyl)amino)-2-oxoethyl)-1H-pyrazol-3-yl)amino)thiazole-5-carboxamide] | – | Y (>20 fold) | – | – | > 5 µM | < 50 nM | 1 to 11 µM | X (100-<1000 fold) |
| Cc1ccc(O)c(C)c1NC(=O)c1cnc(Nc2nn(C)c(C)c2C)s1 [BAA-128, N-(3-hydroxy-2,6-dimethyl-phenyl)-2-[(1,4,5-trimethylpyrazol-3-yl)amino]thiazole-5-carboxamide] | 50 to 1000 nM | Y (>20 fold) | 1 to 11 µM | X (100-<1000 fold) | > 5 µM | – | – | – |
| Cc1ccc(O)c(C)c1NC(=O)c1cnc(Nc2nn(-c3ccccn3)cc2Cl)s1 [BAA-383, 2-((4-chloro-1-(pyridin-2-yl)-1H-pyrazol-3-yl)amino)-N-(3-hydroxy-2,6-dimethylphenyl) thiazole-5-carboxamide] | < 50 nM | X (3-20 fold) | > 11 µM | Y (1000-5000 fold) | 0.5 to 5 µM | – | – | – |
| Cc1cn(-c2scnc2C)nc1Nc1ncc(C(=O)Nc2c(C)ccc(O)c2C)s1 [BAA-386, N-(3-hydroxy-2,6-dimethylphenyl)-2-((4-methyl-1-(4-methylthiazol-5-yl)-1H-pyrazol-3-yl)amino)thiazole-5-carboxamide] | < 50 nM | Y (>20 fold) | 1 to 11 µM | X (100-<1000 fold) | > 5 µM | – | – | – |
| Cc1ccc(O)c(C)c1NC(=O)c1cnc(Nc2cc(C)n(C(C)C)n2)s1 [BAA-233, N-(3-hydroxy-2,6-dimethylphenyl)-2-((1-isopropyl-5-methyl-1H-pyrazol-3-yl)amino)thiazole-5-carboxamide] | < 50 nM | Y (>20 fold) | 0.05 to 1 µM | W (10-<100 fold) | > 5 µM | – | – | – |
| Cc1cn(-c2cccc(F)c2)nc1Nc1ncc(C(=O)Nc2c(C)ccc(O)c2C)s1 [BAA-368, 2-((1-(3-fluorophenyl)-4-methyl-1H-pyrazol-3-yl)amino)-N-(3-hydroxy-2,6-dimethylphenyl)thiazole-5-carboxamide] | < 50 nM | Y (>20 fold) | > 11 µM | Y (1000-5000 fold) | > 5 µM | – | – | – |
| Cc1cn(-c2ncc(C(=O)Nc3c(C)ccc(O)c3C)s2)nc1Nc1ncc(C(=O)Nc2c(C)ccc(O)c2C)s1 [BAA-393, N-(3-hydroxy-2,6-dimethylphenyl)-2-((1-(5-((3-hydroxy-2,6-dimethylphenyl)carbamoyl)thiazol-2-yl)-4-methyl-1H-pyrazol-3-yl)amino)thiazole-5-carboxamide] | – | X (3-20 fold) | – | – | 0.5 to 5 µM | 50 to 1000 nM | > 11 µM | X (100-<1000 fold) |
| Cc1ccc(NC(=O)OC(C)(C)C)nc1Nc1ncc(C(=O)Nc2c(C)ccc(O)c2C)s1 [BAA-329, tert-butyl (6-((5-((3-hydroxy-2,6-dimethylphenyl)carbamoyl)thiazol-2-yl)amino)-5-methylpyridin-2-yl)carbamate] | 50 to 1000 nM | X (3-20 fold) | > 11 µM | Y (1000-5000 fold) | 0.5 to 5 µM | – | – | – |
| Cc1cc(Nc2ncc(C(=O)Nc3c(C)ccc(O)c3C)s2)nc(-c2ccc(F)cc2)n1 [BAA-307, 2-((2-(4-fluorophenyl)-6-methylpyrimidin-4-yl)amino)-N-(3-hydroxy-2,6-dimethylphenyl)thiazole-5-carboxamide] | 50 to 1000 nM | Y (>20 fold) | > 11 µM | Y (1000-5000 fold) | 0.5 to 5 µM | – | – | – |
| Cc1cn(CC(=O)N2CCC(C)C2)nc1Nc1ncc(C(=O)Nc2c(C)ccc(O)c2C)s1 (stereo not drawn) [BAA-497, N-(3-hydroxy-2,6-dimethylphenyl)-2-((4-methyl-1-(2-(3-methylpyrrolidin-1-yl)-2-oxoethyl)-1H-pyrazol-3-yl)amino)thiazole-5-carboxamide] | – | Y (>20 fold) | – | – | > 5 µM | < 50 nM | 1 to 11 µM | X (100-<1000 fold) |
| Cc1ccc(O)c(C)c1NC(=O)c1cnc(Nc2nn(CC(F)(F)F)c3ccccc23)s1 [BAA-457, N-(3-hydroxy-2,6-dimethylphenyl)-2-((1-(2,2,2-trifluoroethyl)-1H-indazol-3-yl)amino)thiazole-5-carboxamide] | – | Y (>20 fold) | – | – | 0.5 to 5 µM | < 50 nM | 1 to 11 µM | X (100-<1000 fold) |
| Cc1cn(-c2cc(Cl)cnc2F)nc1Nc1ncc(C(=O)Nc2c(C)ccc(O)c2C)s1 [BAA-377, 2-((1-(5-chloro-2-fluoropyridin-3-yl)-4-methyl-1H-pyrazol-3-yl)amino)-N-(3-hydroxy-2,6-dimethylphenyl)thiazole-5-carboxamide] | 50 to 1000 nM | X (3-20 fold) | 1 to 11 µM | W (10-<100 fold) | 0.5 to 5 µM | – | – | – |
| Cc1ccc(O)c(C)c1NC(=O)c1cnc(Nc2cccc(-c3cc(F)cc(F)c3)n2)s1 [BAA-315, 2-((6-(3,5-difluorophenyl)pyridin-2-yl)amino)-N-(3-hydroxy-2,6-dimethylphenyl)thiazole-5-carboxamide] | < 50 nM | Y (>20 fold) | > 11 µM | Y (1000-5000 fold) | 0.5 to 5 µM | – | – | – |
